From patent publication US20250134855A1, “CO[…] AND METHODS OF USING SAME” (LYKOS THERAPEUTICS, INC., priority 2022, published 2025)

Columns and labels:
CHO-WBL cells = assay: Chromosomal aberrations in CHO-WBL cells; type: cell-based; conditions: with and without metabolic activation
healthy individuals [1] = assay: Study MPKF: ECG / QTcF; type: in vivo, human
Source text: Specifically, there was no change in mean QTcF over time above 10 ms at any timepoint.

healthy individuals [2] = assay: Study MPKF: SE scores and C-SSRS; set-up: species or system human; conditions: in vivo
Procedure: Those increases from baseline were observed between 0.5 to 4 hours after dosing. […] The other scores remained relatively stable in comparison to baseline across the sessions.

[3] = system: participants with PTSD, eating disorder symptoms; assay: EAT-26 eating disorder psychopathology before and after MDMA-AT (Phase 3 trial NCT03537014); type: in vivo, human
Source text: The Eating Attitudes Test (EAT or EAT-26) is a standardized self-reported questionnaire of symptoms and concerns characteristic of eating disorders. The EAT-26 uses a six-point scale based on how often the individual engages in specific behaviors. The questions can be answered: Always, Usually, Often, Sometimes, Rarely, and Never. Completing the EAT-26 yields a “referral index” based on three criteria: 1) the total score based on the answers to the EAT-26 questions; 2) answers to the behavioral questions related to eating symptoms and weight loss, and 3) the individual's body mass index (BMI) calculated from their height and weight. In some cases, an individual can be recommended for additional care if the individual meets a “cut off” score or threshold on one or more criteria. For example, if an individual score higher than a 20, the individual should be referred to a qualified professional for potential diagnosis of an eating disorder. (See, for example, Garner, D. M., & Garfinkel, P. E. (1979). Psychological Medicine, 9, 273-279.)
Exploratory data on ED psychopathology were analyzed that were collected as part of a Phase 3 trial (trial ID: NCT03537014, which is herein incorporated by reference in its entirety), which was a double-blind randomized controlled study that compared efficacy and safety of MDMA-AT between placebo and MDMA groups for treatment of PTSD. EAT-26 was included as a pre-specified exploratory measure to assess participants' attitudes about eating and food in addition to the presence of previously undetected EDs. EAT-26 assessments were collected at baseline (visit 4) and study termination (visit 20). This self-reported questionnaire consists of 25 components, each rated on a six-point scale of 0 (Never) to 3 (Always), plus an additional component rated from 0 (Always) to 3 (Never). The […] item addresses occurrence and frequency of specific eating behaviors, such as binge eating. Scores were combined to produce a total EAT-26 score, ranging from 0 to 78, with lower values indicating fewer symptoms. Participants meeting a total cut-off score of 20 or greater are considered likely candidates for having an ED diagnosis and warrant referral to a qualified professional.
Among a total of 90 participants who were randomized and received treatment, 89 participants completed the EAT-26 assessment at baseline, and seven participants withdrew from the study and were missing follow-up data (3 MDMA, 4 placebo). A total of 82 of 90 participants (91.1%) completed both baseline and follow-up EAT-26 assessments and were included in the final analysis. This preliminary analysis of an exploratory measure included only completers of both EAT-26 scores at baseline and follow-up assessments to avoid imputation of data that would attenuate the accuracy of results. […] The baseline sample consisted of participants who were majority female (65.2%), identified as women (62.9%), non-Hispanic White or Latino (89.9%), college graduates (70.8%), and the mean (SD) age was 41.0 (12.00) years. In total, 17 participants had been prescribed sertraline, of which 8 and 9 were assigned to the MDMA and placebo treatment groups, respectively. Furthermore, 6 participants had been prescribed paroxetine, which were equally distributed between MDMA and placebo treatment groups (3 and 3, respectively). At baseline, BMI (kg/m2) scores were in the ‘normal’ range (BMI 18.5-24.9) in 56.2%, ‘overweight’ (BMI 25.0-29.9) in 28.1%, and ‘obese’ (BMI≥30) in 15.7% of participants. There were no treatment group differences in demographic variables or baseline ACE, BDI-II, CAPS-5, or lifetime C-SSRS assessments. Mean BMI (SD) was 26.0 (4.8) kg/m2 in the MDMA-AT group and 24.8 (4.2) kg/m2 in the PLAC-AT group (t=1.3, p=. 2).

OATP1B1 = OATP1B1 (Homo sapiens, UniProt Q9Y6L6); assay: Transporter inhibition, OATP1B1
Sequence of OATP1B1 (Q9Y6L6 whole entry): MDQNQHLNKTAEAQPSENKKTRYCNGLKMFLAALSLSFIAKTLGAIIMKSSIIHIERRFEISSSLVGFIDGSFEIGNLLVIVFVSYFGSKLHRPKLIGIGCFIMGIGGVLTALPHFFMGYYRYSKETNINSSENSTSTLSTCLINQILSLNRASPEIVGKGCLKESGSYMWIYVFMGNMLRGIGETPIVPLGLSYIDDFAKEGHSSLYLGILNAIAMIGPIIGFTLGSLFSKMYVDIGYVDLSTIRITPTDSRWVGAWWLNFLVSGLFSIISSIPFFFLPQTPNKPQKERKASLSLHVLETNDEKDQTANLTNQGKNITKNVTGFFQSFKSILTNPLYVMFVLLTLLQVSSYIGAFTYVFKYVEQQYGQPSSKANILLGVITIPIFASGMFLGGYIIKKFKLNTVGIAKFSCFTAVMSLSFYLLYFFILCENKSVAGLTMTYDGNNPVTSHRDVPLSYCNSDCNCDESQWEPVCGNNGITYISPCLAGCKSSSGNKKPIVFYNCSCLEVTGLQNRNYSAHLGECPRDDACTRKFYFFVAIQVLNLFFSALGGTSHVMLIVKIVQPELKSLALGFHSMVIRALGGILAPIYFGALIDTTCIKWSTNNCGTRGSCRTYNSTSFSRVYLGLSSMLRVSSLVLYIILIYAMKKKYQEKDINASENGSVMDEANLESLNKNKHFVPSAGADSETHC

BCRP = BCRP (Homo sapiens, UniProt Q9UNQ0); assay: Transporter substrate assessment, BCRP; conditions: not told
Sequence of BCRP (Q9UNQ0 whole entry): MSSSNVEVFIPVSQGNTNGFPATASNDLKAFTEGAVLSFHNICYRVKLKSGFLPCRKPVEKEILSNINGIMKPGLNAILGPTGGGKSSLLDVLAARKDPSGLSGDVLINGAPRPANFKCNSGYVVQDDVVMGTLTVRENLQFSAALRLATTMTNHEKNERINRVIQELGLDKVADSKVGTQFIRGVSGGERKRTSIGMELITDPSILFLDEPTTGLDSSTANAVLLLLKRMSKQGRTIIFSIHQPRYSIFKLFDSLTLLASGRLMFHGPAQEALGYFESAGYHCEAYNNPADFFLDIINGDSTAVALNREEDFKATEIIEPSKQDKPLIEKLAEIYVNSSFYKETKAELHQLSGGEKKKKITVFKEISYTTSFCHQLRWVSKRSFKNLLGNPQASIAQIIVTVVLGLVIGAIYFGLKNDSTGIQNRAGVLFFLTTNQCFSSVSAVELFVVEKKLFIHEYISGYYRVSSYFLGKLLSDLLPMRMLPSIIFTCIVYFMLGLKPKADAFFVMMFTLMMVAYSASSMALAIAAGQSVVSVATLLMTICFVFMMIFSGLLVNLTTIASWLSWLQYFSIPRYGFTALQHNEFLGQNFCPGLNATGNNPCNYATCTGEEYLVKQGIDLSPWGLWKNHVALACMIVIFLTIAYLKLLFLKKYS

OATP1B3 = OATP1B3 (Homo sapiens, UniProt Q9NPD5); assay: Transporter substrate assessment, OATP1B3
Sequence of OATP1B3 (Q9NPD5 whole entry): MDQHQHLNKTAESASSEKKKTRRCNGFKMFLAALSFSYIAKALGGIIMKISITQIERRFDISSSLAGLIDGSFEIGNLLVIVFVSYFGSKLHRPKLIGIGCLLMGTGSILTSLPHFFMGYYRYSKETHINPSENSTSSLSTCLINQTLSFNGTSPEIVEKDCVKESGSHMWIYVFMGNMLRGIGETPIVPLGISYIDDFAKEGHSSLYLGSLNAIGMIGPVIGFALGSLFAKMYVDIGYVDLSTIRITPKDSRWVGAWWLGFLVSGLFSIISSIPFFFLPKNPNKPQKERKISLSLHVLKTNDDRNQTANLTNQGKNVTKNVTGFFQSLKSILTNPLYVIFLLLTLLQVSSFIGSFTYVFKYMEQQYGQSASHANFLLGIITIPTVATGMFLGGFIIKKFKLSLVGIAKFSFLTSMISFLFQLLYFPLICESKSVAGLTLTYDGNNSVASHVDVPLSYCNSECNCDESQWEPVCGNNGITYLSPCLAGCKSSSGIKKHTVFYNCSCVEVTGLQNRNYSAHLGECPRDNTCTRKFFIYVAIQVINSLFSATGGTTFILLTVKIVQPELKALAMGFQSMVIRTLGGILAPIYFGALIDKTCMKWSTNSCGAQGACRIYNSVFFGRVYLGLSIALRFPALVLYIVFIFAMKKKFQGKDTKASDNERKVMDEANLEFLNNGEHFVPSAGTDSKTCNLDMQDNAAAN

rats = assay: 28-day repeat-dose toxicity, weekly oral, rats; conditions: any dose
[4] = fasted group, 12-hour timepoint

## CNC(C)Cc1ccc2c(c1)OCO2 (centres unmarked) [MDMA, 3,4-methylenedioxymethamphetamine]
CHO-WBL cells
  chromosomal aberrations: no signs of chromosomal aberrations
Healthy individuals [1]; any timepoint
  change in mean QTcF over time: ≤ 10 ms
Healthy individuals [1]; [4]
  participants with mean QTcF increase from baseline above 30 ms: 6.3%
  participants with mean QTcF increase from baseline above 30 ms, n: 1 participant
Healthy individuals [1]; in vivo
  impact on ECG parameters: no significant impact
Healthy individuals [1]; no participant above, any group
  QTcF intervals: ≤ 450 ms
Healthy individuals [2]
  C-SSRS scores: No abnormal C-SSRS scores
[3]; baseline EAT-26≥11 subset
  Cohen's d, EAT-26 reduction MDMA vs placebo: 0.52
  RCI score, EAT-26: −2.16
  within-subject mean (SD) reduction in EAT-26 scores: −9.58 (7.59)
[3]; baseline EAT-26≥20 subset
  RCI score, EAT-26: −2.83
  within-subject mean reduction in EAT-26 scores: −14.08
[3]; reduced from 5 (11.90%) at baseline
  participants with EAT-26≥20 at follow-up: 2.38%
[3]; total sample
  within-subject mean (SD) reduction in EAT-26 scores, baseline to follow-up: −3.04 (6.24)
[3]; total sample, adjusted for baseline
  Hedge's g, EAT-26 change scores MDMA vs placebo: 0.33
[3]; women with EAT-26≥11
  RCI score, EAT-26: −2.90
[3]; women with baseline EAT-26≥11
  Hedge's g, EAT-26 change scores MDMA vs. placebo: 0.63
[3]; women with baseline EAT-26≥20
  Hedge's g, EAT-26 change scores MDMA vs. placebo: 0.60
[3]; women with baseline EAT-26≥20, group not given
  RCI, change in EAT-26 score: −18.80
OATP1B1
  inhibition of OATP1B1: not an inhibitor
BCRP
  substrate of BCRP: not a substrate
OATP1B3
  substrate of OATP1B3: not a substrate
rats
  neurohistopathology of the brain: No morphologic changes
